From publication PMC9530963, “A cathelicidin antimicrobial peptide from Hydrophis cyanocinctus inhibits Zika virus infection by downregulating expression of a viral entry factor” (The Journal of Biological Chemistry, 2022)

Tests used:
AXL = AXL level in Vero cells (Western blot, immunofluorescence); type: cell-based, Chlorocebus aethiops
Procedure: Figure 3 Hc-CATH downregulates AXL in Vero cell.A, schematic diagram of B and C. B, Vero cells were seeded in 24-well plates (5 × 10^4 cells/well) and cultured in DMEM containing 2% FBS. Hc-CATH (1.25, 2.5, and 5 μM), AC5 (2.5 μM), LL-37 (2.5 μM), or same volume of PBS (peptide solvent) was added to cells. After culture at 37 °C for 6, 12, and 24 h, the levels of ZIKV entry factors, including AXL, TYRO3, and TIM-1, were tested by Western blot, respectively. C, Vero cells were seeded in 8-well cover slip chambers (5 × 10^4 cells/well) and cultured in DMEM containing 2% FBS. Hc-CATH (1.25, 2.5, and 5 μM), AC5 (2.5 μM), LL-37 (2.5 μM), or same volume of PBS (peptide solvent) was added to cells. After culture at 37 °C for 24 h, the level of AXL was tested by immunofluorescence staining. The scale bar represents 50 μm. D, schematic diagram of E. E, Vero cells were seeded in 24-well plates (5 × 10^4 cells/well) and cultured in DMEM containing 2% FBS. Hc-CATH (1.25, 2.5, and 5 μM), AC5 (2.5 μM), LL-37 (2.5 μM), or same volume of PBS (peptide solvent) was added to cells and incubated at 37 °C for 2 h. […] Ratio of AXL to β-actin was analyzed by ImageJ.
Vero cells were incubated with Hc-CATH (1.25, 2.5, and 5 μM), AC5 (2.5 μM), LL-37 (2.5 μM), or PBS (solvent of peptide). […] The levels of ZIKV entry factors, including AXL, TYRO3, and TIM-1, were detected by WB analysis. […]

ZIKV [1] = assay: ZIKV replication stage, A549 cells (peptide added after infection); type: cell-based, ZIKV strain PRVABC59; settings: 2.5 μM after ZIKV infection, 48 h; NS3 Western blot
Procedure: B–I, Vero (B–G), A549 (H), or U251 (I) cells were incubated with ZIKV (MOI = 1) at 37 °C for 2 h, washed with PBS, and transferred with fresh DMEM containing 2% FBS and Hc-CATH (2.5 μM), AC5 (2.5 μM), LL-37 (2.5 μM), or PBS (solvent of peptide). After culture at 37 °C for 48 h, intracellular ZIKV RNA (B), NS3 protein (C, D, H, and I), E protein level (E, the scale bar represents 50 μm), and extracellular ZIKV titer (F and G) were detected by qPCR, Western blot, immunofluorescence staining, and plaque-forming assay, respectively.
Vero cells were incubated with ZIKV (MOI = 1) at 37 °C for 2 h, washed three times with PBS, and transferred with fresh DMEM containing 2% FBS and Hc-CATH (2.5 μM), AC5 (2.5 μM), LL-37 (2.5 μM), or PBS. After culture at 37 °C for 48 h, intracellular ZIKV RNA, NS3 protein, E protein, and extracellular ZIKV titer were detected by qPCR, WB, IF, and plaque-forming assay, respectively. The effect of Hc-CATH on ZIKV replication stage was further tested in A549 and U251 cells under the same condition, and intracellular ZIKV NS3 protein was detected by WB.

ZIKV [2] = assay: Binding of Hc-CATH to ZIKV (ELISA); parameters: species or system ZIKV strain PRVABC59; settings: plates coated with 0.25 μM peptide, 1 × 10^6 PFU ZIKV, absorbance at 450 nm
Procedure: Figure 8 Hc-CATH directly inactivates ZIKV particles by disrupting viral membrane.A, schematic diagram of B–G (Hc-CATH-Vero-pre). B–G, direct inactivation of ZIKV by Hc-CATH. ZIKVs (MOI = 1) were incubated with Hc-CATH (2.5 μM), AC5 (2.5 μM), LL-37 (2.5 μM), or PBS (peptide solvent) at 37 °C for 2 h, and then the ZIKV–PBS mixture and ZIKV–peptide mixture were centrifugated at 100,000g for 70 min. The pellets were washed with PBS and centrifugated at 100,000g for 70 min again. The pellets were resuspended in PBS, added to Vero cells, and incubated for 2 h. Cells were washed with PBS and cultured in fresh DMEM containing 2% FBS. After culture at 37 °C for 48 h, the intracellular ZIKV RNA (B), NS3 protein (C and D), E protein level (E, the scale bar represents 50 μm), and extracellular ZIKV titer (F and G) were tested by qPCR, Western blot, immunofluorescence staining, and plaque-forming assay, respectively. H, binding of Hc-CATH to ZIKV. High-affinity binding plates were coated with 0.25 μM of Hc-CATH, BSA, AC5, or LL-37. Then, 1 × 10^6 PFU of ZIKV was added and incubated. […] Absorbance at 450 nm was measured after reactions were stopped using 0.5 M sulfuric acid. […] After the residual RNase was inactivated, the undigested genomic RNA in the intact ZIKV particles was extracted and quantified by testing the genes of PrM, E, and Cap proteins, respectively. ∗∗p < 0.01 and ∗∗∗p < 0.001. […]

In the case of “KFFKRLLKSVRRAVKKFRKKPRLIGLSTLL [Hc-CATH, cathelicidin antimicrobial peptide identified from the sea snake Hydrophis cyanocinctus]”, the “level of AXL in Vero cells” value (AXL; 1.25, 2.5, and 5 μM, 24 h, confirmed by immunofluorescence, relative to PBS) is reported as “reduced the level of AXL”, the “level of AXL in Vero cells upon ZIKV infection” value (AXL; peptide 2 h, then ZIKV MOI = 1, 24 h post Hc-CATH addition) is reported as “decreased the level of AXL” and the “ZIKV infection in A549 cells, peptide added after infection” value (ZIKV [1]) is reported as “did not inhibit ZIKV infection”. The “binding to ZIKV” value (ZIKV [2]) was “stronger binding affinity with ZIKV as compared with bovine serum albumin”.
